Results from ChEMBL document CHEMBL5678818, “Discovery of potent SOS1 inhibitors that block RAS activation via disruption of the RAS-SOS1 interaction” (Proc Natl Acad Sci U S A, 2019).

Assays:
[1] = tested on: Hepatocyte growth factor receptor (Homo sapiens), P08581 [M1250T]; test: Inhibition of MET M1250T mutant (unknown origin) assessed as residual activity at 1000 nM by KINOMEscan analysis relative to control
[2] = biological target: Activin receptor type-1 (Homo sapiens) (UniProt Q04771); test: Inhibition of ACVR1 (unknown origin) assessed as residual activity at 1000 nM by KINOMEscan analysis relative to control
[3] = tested on: ALK tyrosine kinase receptor (Homo sapiens), Q9UM73 [C1156Y]; test: Inhibition of ALK C1156Y mutant (unknown origin) assessed as residual activity at 1000 nM by KINOMEscan analysis relative to control
[4] = biological target: Casein kinase I isoform gamma-1 (Homo sapiens) (UniProt Q9HCP0); test: Inhibition of CSNK1G1 (unknown origin) assessed as residual activity at 1000 nM by KINOMEscan analysis relative to control
[5] = biological target: Tyrosine-protein kinase Fgr (Homo sapiens) (UniProt P09769); test: Inhibition of FGR (unknown origin) assessed as residual activity at 1000 nM by KINOMEscan analysis relative to control
[6] = biological target: Serine/threonine-protein kinase 26 (Homo sapiens) (UniProt Q9P289); test: Inhibition of MST4 (unknown origin) assessed as residual activity at 1000 nM by KINOMEscan analysis relative to control
[7] = biological target: Cyclin-dependent kinase 13 (Homo sapiens) (UniProt Q14004); test: Inhibition of CDC2L5 (unknown origin) assessed as residual activity at 1000 nM by KINOMEscan analysis relative to control
[8] = biological target: Maternal embryonic leucine zipper kinase (Homo sapiens) (UniProt Q14680); test: Inhibition of MELK (unknown origin) assessed as residual activity at 1000 nM by KINOMEscan analysis relative to control
[9] = biological target: T1, Cyclin-dependent kinase-like 2 (Homo sapiens) (UniProt Q92772); test: Inhibition of CDKL2 (unknown origin) assessed as residual activity at 1000 nM by KINOMEscan analysis relative to control
T1 sequence (whole entry): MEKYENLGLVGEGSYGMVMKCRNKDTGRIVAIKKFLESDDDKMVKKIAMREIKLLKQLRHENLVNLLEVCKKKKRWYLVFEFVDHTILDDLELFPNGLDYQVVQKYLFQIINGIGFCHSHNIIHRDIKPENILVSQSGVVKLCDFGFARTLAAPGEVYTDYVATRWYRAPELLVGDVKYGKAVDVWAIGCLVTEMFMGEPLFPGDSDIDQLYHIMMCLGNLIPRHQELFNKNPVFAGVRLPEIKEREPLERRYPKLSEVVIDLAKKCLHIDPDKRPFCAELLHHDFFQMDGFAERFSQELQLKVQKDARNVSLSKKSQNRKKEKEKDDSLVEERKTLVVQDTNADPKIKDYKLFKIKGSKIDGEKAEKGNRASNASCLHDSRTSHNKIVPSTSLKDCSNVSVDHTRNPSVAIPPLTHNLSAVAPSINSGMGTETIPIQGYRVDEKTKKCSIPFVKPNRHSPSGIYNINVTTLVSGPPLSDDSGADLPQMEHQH

[10] = biological target: Phosphatidylinositol 4-kinase beta (Homo sapiens) (UniProt Q9UBF8); test: Inhibition of PIK4CB (unknown origin) assessed as residual activity at 1000 nM by KINOMEscan analysis relative to control
[11] = tested on: Mast/stem cell growth factor receptor Kit (Homo sapiens), P10721 [V559D]; test: Inhibition of KIT V559D mutant (unknown origin) assessed as residual activity at 1000 nM by KINOMEscan analysis relative to control
[12] = tested on: Tyrosine-protein kinase ABL1 (Homo sapiens), P00519 [F317L]; test: Inhibition of phosphorylated ABL1 F317L mutant (unknown origin) assessed as residual activity at 1000 nM by KINOMEscan analysis relative to control
[13] = biological target: 5'-AMP-activated protein kinase catalytic subunit alpha-2 (Homo sapiens) (UniProt P54646); test: Inhibition of AMPK-alpha2 (unknown origin) assessed as residual activity at 1000 nM by KINOMEscan analysis relative to control
[14] = biological target: T2, TGF-beta receptor type-1 (Homo sapiens) (UniProt P36897); test: Inhibition of TGFBR1 (unknown origin) assessed as residual activity at 1000 nM by KINOMEscan analysis relative to control
T2 sequence (whole entry): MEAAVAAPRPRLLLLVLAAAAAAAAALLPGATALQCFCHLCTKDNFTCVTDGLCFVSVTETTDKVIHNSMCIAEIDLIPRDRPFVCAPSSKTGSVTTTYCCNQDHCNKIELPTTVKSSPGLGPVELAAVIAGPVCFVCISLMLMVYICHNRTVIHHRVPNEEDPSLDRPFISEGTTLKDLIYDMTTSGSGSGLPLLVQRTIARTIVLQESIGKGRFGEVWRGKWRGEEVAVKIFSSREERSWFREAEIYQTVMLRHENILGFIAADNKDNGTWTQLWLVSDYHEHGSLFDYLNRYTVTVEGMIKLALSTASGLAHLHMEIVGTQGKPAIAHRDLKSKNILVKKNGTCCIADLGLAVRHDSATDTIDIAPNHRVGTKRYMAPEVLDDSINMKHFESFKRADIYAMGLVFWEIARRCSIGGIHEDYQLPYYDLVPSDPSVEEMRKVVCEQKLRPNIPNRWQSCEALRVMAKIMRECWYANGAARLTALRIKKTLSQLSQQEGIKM

[15] = biological target: Receptor tyrosine-protein kinase erbB-3 (Homo sapiens) (UniProt P21860); test: Inhibition of ERBB3 (unknown origin) assessed as residual activity at 1000 nM by KINOMEscan analysis relative to control
[16] = biological target: T3, Dual specificity mitogen-activated protein kinase kinase 7 (Homo sapiens) (UniProt O14733); test: Inhibition of MKK7 (unknown origin) assessed as residual activity at 1000 nM by KINOMEscan analysis relative to control
T3 sequence (whole entry): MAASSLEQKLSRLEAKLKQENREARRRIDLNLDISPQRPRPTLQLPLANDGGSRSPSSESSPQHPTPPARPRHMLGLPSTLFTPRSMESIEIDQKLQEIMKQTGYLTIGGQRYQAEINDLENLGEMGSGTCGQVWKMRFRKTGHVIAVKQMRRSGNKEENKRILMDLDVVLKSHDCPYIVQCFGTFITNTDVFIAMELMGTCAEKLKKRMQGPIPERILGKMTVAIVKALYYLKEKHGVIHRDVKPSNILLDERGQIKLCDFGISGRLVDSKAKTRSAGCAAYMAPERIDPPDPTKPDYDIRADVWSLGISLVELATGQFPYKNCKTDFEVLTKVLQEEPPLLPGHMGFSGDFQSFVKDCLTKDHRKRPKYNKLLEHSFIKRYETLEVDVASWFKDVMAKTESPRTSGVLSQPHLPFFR

[17] = biological target: Tyrosine-protein kinase receptor UFO (Homo sapiens) (UniProt P30530); test: Inhibition of AXL (unknown origin) assessed as residual activity at 1000 nM by KINOMEscan analysis relative to control

Chain of Serine/threonine-protein kinase 26 (Homo sapiens) (Q9P289 2-416 limits assumed): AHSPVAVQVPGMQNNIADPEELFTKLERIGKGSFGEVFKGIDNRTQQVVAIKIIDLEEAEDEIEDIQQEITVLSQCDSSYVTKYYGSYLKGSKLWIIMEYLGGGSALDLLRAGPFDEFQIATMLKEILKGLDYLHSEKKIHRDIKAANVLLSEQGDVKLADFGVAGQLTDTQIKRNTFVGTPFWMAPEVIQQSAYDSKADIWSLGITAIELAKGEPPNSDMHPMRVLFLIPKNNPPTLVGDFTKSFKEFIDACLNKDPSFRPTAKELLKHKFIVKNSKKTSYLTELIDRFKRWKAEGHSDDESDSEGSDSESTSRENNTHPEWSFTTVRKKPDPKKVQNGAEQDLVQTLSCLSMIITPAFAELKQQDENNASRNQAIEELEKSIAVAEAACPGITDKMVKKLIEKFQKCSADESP
Chain of Tyrosine-protein kinase ABL1 (Homo sapiens), P00519 [F317L] (P00519 whole entry F317L): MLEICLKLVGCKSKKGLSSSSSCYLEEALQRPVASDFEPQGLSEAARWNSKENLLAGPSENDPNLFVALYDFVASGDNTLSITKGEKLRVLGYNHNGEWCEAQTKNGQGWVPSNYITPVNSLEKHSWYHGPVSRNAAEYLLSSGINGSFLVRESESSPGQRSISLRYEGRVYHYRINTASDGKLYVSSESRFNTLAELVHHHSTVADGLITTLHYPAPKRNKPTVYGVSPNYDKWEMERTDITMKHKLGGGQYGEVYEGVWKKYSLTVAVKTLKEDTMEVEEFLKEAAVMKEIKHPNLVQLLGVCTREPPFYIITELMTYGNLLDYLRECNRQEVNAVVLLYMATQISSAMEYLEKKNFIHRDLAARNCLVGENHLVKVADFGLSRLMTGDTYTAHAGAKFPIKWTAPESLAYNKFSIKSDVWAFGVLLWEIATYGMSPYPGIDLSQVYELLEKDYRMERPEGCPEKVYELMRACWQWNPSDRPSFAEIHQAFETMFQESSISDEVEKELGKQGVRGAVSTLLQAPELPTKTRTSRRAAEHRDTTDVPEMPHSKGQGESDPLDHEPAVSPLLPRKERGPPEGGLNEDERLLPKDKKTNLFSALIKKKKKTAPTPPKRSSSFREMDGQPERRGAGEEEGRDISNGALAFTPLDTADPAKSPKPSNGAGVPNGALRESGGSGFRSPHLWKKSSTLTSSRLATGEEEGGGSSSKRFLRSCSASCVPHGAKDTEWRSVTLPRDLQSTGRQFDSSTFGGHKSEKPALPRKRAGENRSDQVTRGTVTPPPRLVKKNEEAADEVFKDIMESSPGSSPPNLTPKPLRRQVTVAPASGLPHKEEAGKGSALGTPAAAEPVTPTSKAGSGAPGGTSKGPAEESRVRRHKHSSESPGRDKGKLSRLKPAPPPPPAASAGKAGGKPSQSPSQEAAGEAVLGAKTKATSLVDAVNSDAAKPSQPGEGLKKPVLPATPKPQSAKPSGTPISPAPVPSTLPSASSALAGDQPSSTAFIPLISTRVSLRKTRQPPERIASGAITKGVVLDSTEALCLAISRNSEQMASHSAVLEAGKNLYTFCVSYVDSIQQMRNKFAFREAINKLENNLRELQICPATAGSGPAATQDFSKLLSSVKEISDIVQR
Chain of Maternal embryonic leucine zipper kinase (Homo sapiens) (Q14680 whole entry, looked up): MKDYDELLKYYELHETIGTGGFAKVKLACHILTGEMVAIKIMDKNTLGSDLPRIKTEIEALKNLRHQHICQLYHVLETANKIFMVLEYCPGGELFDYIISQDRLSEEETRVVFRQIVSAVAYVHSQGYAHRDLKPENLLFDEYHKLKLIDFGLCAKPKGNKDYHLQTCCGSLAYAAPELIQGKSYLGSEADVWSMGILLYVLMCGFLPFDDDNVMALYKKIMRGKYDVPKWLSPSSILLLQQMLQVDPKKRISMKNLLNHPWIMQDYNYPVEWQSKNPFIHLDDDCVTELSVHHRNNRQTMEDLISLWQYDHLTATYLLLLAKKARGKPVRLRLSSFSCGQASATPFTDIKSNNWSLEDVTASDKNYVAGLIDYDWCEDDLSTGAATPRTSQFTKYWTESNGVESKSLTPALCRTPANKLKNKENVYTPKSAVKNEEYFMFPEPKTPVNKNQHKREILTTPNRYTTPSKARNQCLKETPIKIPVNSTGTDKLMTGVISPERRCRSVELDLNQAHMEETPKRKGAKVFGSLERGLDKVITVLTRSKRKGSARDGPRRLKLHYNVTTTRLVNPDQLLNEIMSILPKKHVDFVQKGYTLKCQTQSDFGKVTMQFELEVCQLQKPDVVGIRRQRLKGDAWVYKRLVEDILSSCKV
Chain of ALK tyrosine kinase receptor (Homo sapiens), Q9UM73 [C1156Y] (Q9UM73 whole entry C1156Y, looked up, canonical isoform): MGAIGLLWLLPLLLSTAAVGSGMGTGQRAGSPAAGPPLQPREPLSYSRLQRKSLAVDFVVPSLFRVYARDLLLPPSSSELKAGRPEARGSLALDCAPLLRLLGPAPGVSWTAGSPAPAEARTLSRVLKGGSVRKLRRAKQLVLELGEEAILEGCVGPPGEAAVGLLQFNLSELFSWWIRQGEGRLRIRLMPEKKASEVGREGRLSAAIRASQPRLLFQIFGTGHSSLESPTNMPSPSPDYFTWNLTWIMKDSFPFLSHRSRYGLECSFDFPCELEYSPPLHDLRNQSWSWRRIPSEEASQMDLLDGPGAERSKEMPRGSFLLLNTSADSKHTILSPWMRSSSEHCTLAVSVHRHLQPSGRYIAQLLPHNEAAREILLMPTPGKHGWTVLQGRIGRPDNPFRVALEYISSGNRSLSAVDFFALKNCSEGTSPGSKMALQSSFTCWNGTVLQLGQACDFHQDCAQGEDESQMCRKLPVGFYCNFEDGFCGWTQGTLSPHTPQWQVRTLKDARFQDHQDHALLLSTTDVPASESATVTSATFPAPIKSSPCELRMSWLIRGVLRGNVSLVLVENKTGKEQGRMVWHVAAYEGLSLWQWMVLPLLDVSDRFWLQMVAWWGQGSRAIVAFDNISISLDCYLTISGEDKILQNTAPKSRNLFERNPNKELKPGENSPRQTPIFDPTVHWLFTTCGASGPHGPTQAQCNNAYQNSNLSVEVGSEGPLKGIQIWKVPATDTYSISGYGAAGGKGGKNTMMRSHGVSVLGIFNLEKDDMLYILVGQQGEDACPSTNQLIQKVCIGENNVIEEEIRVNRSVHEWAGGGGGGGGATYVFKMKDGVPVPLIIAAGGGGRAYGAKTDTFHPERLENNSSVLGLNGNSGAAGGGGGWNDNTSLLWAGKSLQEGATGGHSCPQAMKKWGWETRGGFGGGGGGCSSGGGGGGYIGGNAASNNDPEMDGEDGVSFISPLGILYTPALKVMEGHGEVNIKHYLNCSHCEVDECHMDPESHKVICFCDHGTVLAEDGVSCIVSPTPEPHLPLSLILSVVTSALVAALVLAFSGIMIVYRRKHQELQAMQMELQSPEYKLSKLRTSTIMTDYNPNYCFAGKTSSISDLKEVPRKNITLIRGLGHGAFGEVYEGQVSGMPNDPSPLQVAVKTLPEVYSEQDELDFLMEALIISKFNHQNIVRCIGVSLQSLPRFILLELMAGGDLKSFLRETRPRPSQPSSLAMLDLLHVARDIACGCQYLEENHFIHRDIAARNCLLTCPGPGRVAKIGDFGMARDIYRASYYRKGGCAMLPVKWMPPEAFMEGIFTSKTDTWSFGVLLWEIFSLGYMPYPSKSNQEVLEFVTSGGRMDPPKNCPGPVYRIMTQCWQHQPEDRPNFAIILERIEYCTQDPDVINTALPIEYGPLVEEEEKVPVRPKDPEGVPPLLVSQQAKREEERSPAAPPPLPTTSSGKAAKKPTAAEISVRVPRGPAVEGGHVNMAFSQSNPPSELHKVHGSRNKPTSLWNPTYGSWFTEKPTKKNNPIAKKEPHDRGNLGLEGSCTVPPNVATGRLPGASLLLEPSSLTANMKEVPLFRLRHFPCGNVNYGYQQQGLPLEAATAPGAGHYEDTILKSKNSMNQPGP
Chain of Tyrosine-protein kinase Fgr (Homo sapiens) (P09769 2-529 limits assumed): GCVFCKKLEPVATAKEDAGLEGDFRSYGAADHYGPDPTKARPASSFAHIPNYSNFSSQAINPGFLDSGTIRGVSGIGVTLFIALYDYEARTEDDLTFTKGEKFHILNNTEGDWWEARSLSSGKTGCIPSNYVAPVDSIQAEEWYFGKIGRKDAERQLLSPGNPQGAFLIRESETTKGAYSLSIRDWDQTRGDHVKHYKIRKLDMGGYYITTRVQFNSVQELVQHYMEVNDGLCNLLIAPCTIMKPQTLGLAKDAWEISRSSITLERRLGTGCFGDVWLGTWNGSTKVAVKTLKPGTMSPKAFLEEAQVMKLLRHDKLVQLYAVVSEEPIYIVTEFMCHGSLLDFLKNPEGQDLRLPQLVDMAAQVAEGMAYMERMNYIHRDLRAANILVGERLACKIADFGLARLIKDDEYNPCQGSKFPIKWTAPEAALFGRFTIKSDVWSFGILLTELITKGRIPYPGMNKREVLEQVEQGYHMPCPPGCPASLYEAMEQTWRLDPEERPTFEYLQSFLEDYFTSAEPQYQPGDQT
Chain of 5'-AMP-activated protein kinase catalytic subunit alpha-2 (Homo sapiens) (P54646 whole entry, looked up): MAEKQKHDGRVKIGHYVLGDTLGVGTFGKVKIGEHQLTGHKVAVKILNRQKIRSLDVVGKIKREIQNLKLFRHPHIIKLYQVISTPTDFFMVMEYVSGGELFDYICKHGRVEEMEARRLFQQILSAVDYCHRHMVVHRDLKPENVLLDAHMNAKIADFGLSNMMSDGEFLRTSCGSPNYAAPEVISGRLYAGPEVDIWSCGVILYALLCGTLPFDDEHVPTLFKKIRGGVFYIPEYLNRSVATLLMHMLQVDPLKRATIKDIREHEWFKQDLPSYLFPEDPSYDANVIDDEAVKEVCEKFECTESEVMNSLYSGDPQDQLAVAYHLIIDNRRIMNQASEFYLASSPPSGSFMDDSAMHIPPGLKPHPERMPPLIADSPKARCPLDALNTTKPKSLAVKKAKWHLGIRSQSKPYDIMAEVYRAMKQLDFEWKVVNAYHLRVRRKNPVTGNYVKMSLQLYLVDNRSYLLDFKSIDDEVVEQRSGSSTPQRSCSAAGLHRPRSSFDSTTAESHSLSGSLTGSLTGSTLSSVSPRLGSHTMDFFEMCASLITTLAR

Question: How did the Activity [1] turn out when `COc1cc2nc(C)nc(N[C@H](C)c3cccc(-c4cn[nH]c4)c3)c2cc1OC` was run?
Answer: The Activity was 100%.

Question: What about the Activity [2] of the same compound?
Answer: The Activity was 100%.

Question: And the Activity [3]?
Answer: Its Activity is 80%.

Question: What about the Activity [4] of the same compound?
Answer: The Activity was 96%.

Question: And the Activity [5]?
Answer: The Activity was 48%.

Question: What about the Activity [6] of the same compound?
Answer: The Activity was 74%.

Question: And the Activity [7]?
Answer: Its Activity is 87%.

Question: And the Activity [8]?
Answer: The Activity was 91%.

Question: What about the Activity [9] of the same compound?
Answer: The Activity was 81%.

Question: And the Activity [10]?
Answer: Its Activity is 69%.

Question: What about the Activity [11] of the same compound?
Answer: The Activity was 81%.

Question: What about the Activity [12] of the same compound?
Answer: The Activity was 92%.

Question: And the Activity [13]?
Answer: Its Activity is 81%.

Question: And the Activity [14]?
Answer: Its Activity is 100%.

Question: What about the Activity [15] of the same compound?
Answer: Its Activity is 96%.

Question: And the Activity [16]?
Answer: Its Activity is 98%.

Question: What about the Activity [17] of the same compound?
Answer: The Activity was 93%.

Question: Which Activity [1] does the source give for `COc1cc2ncnc(N[C@H](C)c3cccc4ccccc34)c2cc1OC` here?
Answer: Its Activity is 98%.

Question: And the Activity [2]?
Answer: Its Activity is 100%.

Question: What about the Activity [3] of the same compound?
Answer: The Activity was 86%.

Question: What about the Activity [4] of the same compound?
Answer: The Activity was 100%.

Question: And the Activity [5]?
Answer: Its Activity is 95%.

Question: And the Activity [6]?
Answer: Its Activity is 98%.

Question: And the Activity [7]?
Answer: The Activity was 97%.

Question: What about the Activity [8] of the same compound?
Answer: The Activity was 71%.

Question: And the Activity [9]?
Answer: Its Activity is 97%.

Question: And the Activity [10]?
Answer: The Activity was 82%.

Question: And the Activity [11]?
Answer: The Activity was 95%.

Question: What about the Activity [12] of the same compound?
Answer: The Activity was 89%.

Question: What about the Activity [13] of the same compound?
Answer: The Activity was 98%.

Question: And the Activity [14]?
Answer: Its Activity is 100%.

Question: What about the Activity [15] of the same compound?
Answer: Its Activity is 92%.

Question: And the Activity [16]?
Answer: Its Activity is 77%.

Question: What about the Activity [17] of the same compound?
Answer: Its Activity is 90%.
